Data from the supplement of paper PMC10307832.

Key:
Test in all cases: relative viability (nuclei count vs DMSO), 5 days (fraction); higher = more cells survive
[1] = compound: CCCS(=O)(=O)Nc1ccc(F)c(C(=O)c2c[nH]c3ncc(-c4ccc(Cl)cc4)cc23)c1F [Vemurafenib] + COc1cc2c(Oc3ccc(NC(=O)C4(C(=O)Nc5ccc(F)cc5)CC4)cc3F)ccnc2cc1OCCCN1CCOCC1 [Foretinib] (partner 0.25 µM)
How it was run: (§1)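 The day after seeding in 1536-well plates, lung cancer cell lines were treated by pin tool with a single drug, or with a fixed anchor-drug dose together with five library-drug doses (not always all listed) in √10 steps. After 5 days, a combined fix-and-stain solution (final 0.05% Triton X-100, 1% formaldehyde, 1 ug/ml Hoechst) was added. Nuclei counted on 4× images gave relative viability as treated counts over vehicle counts, reported as the median of duplicate plates.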

[2] = compound: COc1cccc2cc(-c3nc([C@H]4CC[C@H](C(=O)O)CC4)n4ncnc(N)c34)[nH]c12 [OSI-027] + CCNC(=O)c1noc(-c2cc(C(C)C)c(O)cc2O)c1-c1ccc(CN2CCOCC2)cc1 [Luminespib] (partner 0.01 µM)
How it was run: as §1

[3] = compound: COc1cccc2cc(-c3nc([C@H]4CC[C@H](C(=O)O)CC4)n4ncnc(N)c34)[nH]c12 [OSI-027] + Cc1nc(Nc2ncc(C(=O)Nc3c(C)cccc3Cl)s2)cc(N2CCN(CCO)CC2)n1 [Dasatinib] (partner 0.075 µM)
How it was run: as §1

[4] = compound: Cc1nc(NC(=O)N2CCC[C@H]2C(N)=O)sc1-c1ccnc(C(C)(C)C(F)(F)F)c1 [Alpelisib] + C[C@@H](Oc1cc(-c2cnn(C3CCNCC3)c2)cnc1N)c1c(Cl)ccc(F)c1Cl [Crizotinib] (partner 1 µM)
How it was run: as §1

Cell Line	relative viability ([1]; first compound 0.03162 µM)	relative viability ([1]; first compound 0.1 µM)	relative viability ([1]; first compound 0.3162 µM)	relative viability ([1]; first compound 1 µM)	relative viability ([2]; first compound 0.01 µM)	relative viability ([2]; first compound 0.03162 µM)	relative viability ([2]; first compound 0.1 µM)	relative viability ([2]; first compound 0.3162 µM)	relative viability ([2]; first compound 1 µM)	relative viability ([3]; first compound 0.01 µM)	relative viability ([3]; first compound 0.03162 µM)	relative viability ([3]; first compound 0.1 µM)	relative viability ([3]; first compound 0.3162 µM)	relative viability ([3]; first compound 1 µM)	relative viability ([4]; first compound 0.04 µM)	relative viability ([4]; first compound 0.1265 µM)	relative viability ([4]; first compound 0.4 µM)	relative viability ([4]; first compound 1.265 µM)	relative viability ([4]; first compound 4 µM)
NCI-H1975	0.957	0.969	0.792	0.963	0.232	0.195	0.157	0.121	0.187	0.309	0.362	0.334	0.301	0.316	0.877	1.01	0.968	0.753	0.68
NCI-H522	–	–	–	–	1.2	1.25	1.19	0.698	0.58	0.963	0.944	0.723	0.629	0.736	–	–	–	–	–
NCI-H1437	1.18	1.22	1.3	1.27	1.08	1.12	1.16	1.14	0.806	0.421	0.441	0.32	0.373	0.192	0.904	0.919	1	0.906	0.942
NCI-H1666	0.99	0.87	0.993	0.925	1.01	1	0.996	0.891	0.915	0.825	0.778	0.732	0.733	0.463	0.914	0.87	0.932	0.765	0.747
NCI-H647	1.12	1.11	1.34	1.02	0.153	0.146	0.145	0.149	0.0965	0.126	0.14	0.157	0.171	0.071	1.03	1.08	1.11	0.933	0.913
NCI-H1623	0.896	–	1.03	0.768	0.511	0.423	0.322	0.323	0.202	0.52	0.607	0.455	0.365	0.275	–	–	–	–	–
NCI-H23	0.981	0.685	0.953	0.719	–	0.215	0.188	0.203	0.225	0.718	0.899	0.867	0.746	0.46	0.565	0.497	0.425	0.428	0.432
NCI-H1915	1.09	1.05	1.03	1	1.04	0.972	0.862	0.687	0.562	0.289	0.307	0.279	0.24	0.145	0.903	0.936	0.988	0.78	0.8
HOP-62	1.06	1.08	0.916	1.05	0.954	0.904	0.957	0.926	0.363	0.6	0.675	0.591	0.556	0.301	0.97	0.714	0.884	0.733	0.72
